In brackets after ≈: the same amount, converted by molar mass. Read-outs that look alike come from different tables or passages of the source.
Experiments:
[1] = system: Enterococcus faecium ATCC 700221 (VRE; vancomycin-resistant); experiment: Broth microdilution MIC; type: cell-based; details: for MIC: Enterococcus faecium, read-out: Measured MIC; for Measured MIC: Table 2, polC WT, strain ATCC 700221
Experimental: (§1) Minimal inhibitory concentrations (MICs) were determined by WuXi Apptec, on behalf of Acurx Pharmaceuticals, Inc., for the Gram-positive pathogens: Enterococcus faecium ATCC 700221 (VRE; vancomycin-resistant), Enterococcus faecalis ATCC 29212, Staphylococcus aureus NRS384 (MRSA; methicillin-resistant), Staphylococcus aureus ATCC 29213 (MSSA; methicillin-sensitive), and Streptococcus pneumoniae ATCC 49619 (PRSP; penicillin-resistant). As a control, Gram-negative Escherichia coli ATCC 25922 was included. All strains were obtained from ATCC with the exception of Staphylococcus aureus NRS384, which was obtained from NARSA (Network on Antimicrobial Resistance in Staphylococcus aureus, now part of BEI resources). Bacteria were cultured according to the manuals provided by the suppliers and stored in 25% glycerol (final concentration) at –80 °C.
(§2) Bacterial strains were streaked out onto MHA plates (Mueller-Hinton II Agar; BD-211438) and incubated at 37 °C for 20 h except for S. pneumoniae and Enterococci, which were streaked on blood agar (Huankai-24070). S. pneumoniae was incubated in 5% CO2. Single colonies were suspended in 5 mL sterile saline, the turbidity was adjusted to 0.20 (Siemens MicroScan turbidity metre; equal to ~1.0 × 10^8 colony forming units (CFU)/mL) and then diluted 200x in MHIIB (Mueller-Hinton II […] (BD-211438)) medium. The MHIIB media was supplemented with 5% Lysed Horse Blood (Shanghai YuanMu Biological Technology Co. Ltd. YM-U161) for S. pneumoniae.
(§3) ACX compounds were dissolved in pure DMSO (Sigma 276855) to a concentration of 20 mg/mL. From this, twofold serial dilutions (from […]) in DMSO were transferred to a 96-well source-plate (Axygen-wipp02280) with pure DMSO as a control. 2 µL from the source plate was then transferred into 96-well culture plates (Costar 3788) and inoculated with 198 µL of the bacterial suspension so that each well contained ~5.0 × 10^5 CFU/mL bacteria, 1% DMSO and serially diluted compounds at 0 µg/mL and 0.0625-64 µg/mL in 100 µl medium. For NRS384, which was tested in a separate experiment, 99 µL of bacterial suspension was added to 1 µL of compound. The plates were incubated in ambient atmosphere at 37 °C for 20 h.

[2] = system: Enterococcus faecalis ATCC 29212; experiment: Broth microdilution MIC; type: cell-based
Experimental: as §1, §2, §3

[3] = system: Escherichia coli ATCC 25922; experiment: Broth microdilution MIC; type: cell-based
Experimental: as §1, §2, §3

[4] = system: Streptococcus pneumoniae ATCC 49619 (PRSP; penicillin-resistant); experiment: Broth microdilution MIC; type: cell-based; details: read-out: Measured MIC
Experimental: as §1, §2, §3

[5] = system: Staphylococcus aureus ATCC 29213 (MSSA; methicillin-sensitive); experiment: Broth microdilution MIC; type: cell-based; details: read-out: Measured MIC
Experimental: as §1, §2, §3

[6] = system: E. faecium strains with polC mutations (A1281T, F1276I, F1276L, F1276S); experiment: Cross-resistance MIC of reduced susceptible E. faecium strains; type: cell-based, Enterococcus faecium; details: for MIC: Enterococcus faecium
Experimental: Strains with reduced susceptibility to ACX compounds were generated by WuXi Apptec on behalf of Acurx Pharmaceuticals, Inc., using E. faecium ATCC 700221 as parental strain.
Agar MICs for the wild-type strain were determined on Blood agar (Huankai). Compounds and linezolid were dissolved in 100% DMSO and vancomycin in ultrapure water. Strains were inoculated onto agar plates, incubated at 37 °C for 20-24 h after which colonies were suspended in sterile 0.9% saline at different bacterial concentrations. 5 μL of bacterial suspensions was individually spotted on agar plates supplemented with compounds at different concentrations, resulting in final concentrations of 10^–1, 10^–2, 10^–3, 10^–4, 10^–5, 10^–6, and 10^–7 per spot. After incubation for 20-24 h, bacterial growth was assessed by visual inspection.
For frequency of resistance (FOR) studies, colonies from the agar plate were suspended into sterile 0.9% saline to get 10^8-10^9 CFU bacterial cells per mL. […] The suspensions were also serially diluted with 0.9% saline and spotted onto agar to determine the actual inoculum. All agar plates were incubated at 37 °C for 48 h. FOR was defined as colony number on each compound-containing plate per CFU number of actual inoculum. Resistant colonies were subcultured on the corresponding compound plates to confirm that colonies were resistant and stable.
Confirmed resistant colonies were used for cross-resistance studies, as described above.
Paired-end short read sequencing data from selected mutants (generated by BGISEQ) as well as the corresponding wild-type parental strain was analysed against the reference genomes for E. faecium strain ATCC 700221 (https://genomes.atcc.org/genomes/f9d13a716ccb4f78) using Geneious R10.2.6 (Biomatters Ltd). Variants were called using the Find Variants/SNPs function with a minimum coverage of 10 and a minimum frequency of 0.8. […] This identified the following mutations in the polC gene: D1103Y in strain Efa4; F1276L in strains Efa030, Efa038, and Efa039; F1276I in strains Efa1 and Efa037; F1276S in strain Efa3; A1281T in strains Efa036, Efa040 and Efa041. Strains Efa036, Efa039, and Efa040 each had only one polymorphism identified.

[7] = system: Staphylococcus aureus NRS384 (MRSA; methicillin-resistant); experiment: Broth microdilution MIC; type: cell-based; details: read-out: Measured MIC
Experimental: as §1, §2, §3

[8] = ATCC29212, read-out: Measured MIC
[9] = ATCC25922, read-out: Measured MIC
[10] = read-out: Measured MIC, polC A1281T, strain Efa036, selected on 2 mg/L ACX-641
[11] = read-out: Measured MIC, polC A1281T, strain Efa040, selected on 4 mg/L ACX-671
[12] = read-out: Measured MIC, polC F1276I, strain Efa037, selected on 4 mg/L ACX-641
[13] = read-out: Measured MIC, polC F1276L, strain Efa030, selected on 16 mg/L ACX-728
[14] = read-out: Measured MIC, polC F1276S, strain Efa3, selected on 16 mg/L ACX-728

| SMILES | MIC [1] | Measured MIC [1] | MIC [2, 8] | MIC [3, 9] | MIC [4] | MIC [5] | MIC [6, 10] | MIC [6, 11] | MIC [6, 12] | MIC [6, 13] | MIC [6, 14] | further results |
| --- | --- | --- | --- | --- | --- | --- | --- | --- | --- | --- | --- | --- |
| CCCCCCCCCC(=O)N[C@@H](Cc1c[nH]c2ccccc12)C(=O)N[C@H](CC(N)=O)C(=O)N[C@@H](CC(=O)O)C(=O)N[C@@H]1C(=O)NCC(=O)N[C@@H](CCCN)C(=O)N[C@@H](CC(=O)O)C(=O)N[C@H](C)C(=O)N[C@@H](CC(=O)O)C(=O)NCC(=O)N[C@H](CO)C(=O)N[C@@H]([C@H](C)CC(=O)O)C(=O)N[C@@H](CC(=O)c2ccccc2N)C(=O)O[C@@H]1C [DAP, daptomycin] | 4 µg/mL (≈ 2.47 µM) | 4 µg/mL | 8 µg/mL (≈ 4.94 µM) | > 64 µg/mL | 0.5 µg/mL (≈ 0.309 µM) | 1 µg/mL (≈ 0.617 µM) | 4 µg/mL | 4 µg/mL | 2 µg/mL | 2 µg/mL | 2 µg/mL | – |
| CN(C)c1cc(CNCC(C)(C)C)c(O)c2c1C[C@H]1C[C@H]3[C@H](N(C)C)C(O)=C(C(N)=O)C(=O)[C@@]3(O)C(O)=C1C2=O [OMC, omadacycline] | – | 0.12 µg/mL | – | – | – | – | 0.12 µg/mL | 0.12 µg/mL | ≤ 0.06 µg/mL | 0.12 µg/mL | ≤ 0.06 µg/mL | MIC ([1]; E. faecium VRE ATCC 700221, Table 1, single replicate): 0.12 µg/mL (≈ 0.216 µM); MIC ([2]; ATCC29212, E. faecalis ATCC 29212, Table 1, single replicate, read-out: Measured MIC): 0.25 µg/mL (≈ 0.449 µM); MIC ([3]; ATCC25922, E. coli ATCC 25922, Table 1, single replicate, read-out: Measured MIC): 1 µg/mL (≈ 1.8 µM); MIC ([4]; S. pneumoniae PRSP ATCC 49619, Table 1, single replicate): ≤ 0.06 µg/mL; MIC ([5]; S. aureus ATCC 29213, Table 1, single replicate): 0.5 µg/mL (≈ 0.898 µM) |
| CN[C@H](CC(C)C)C(=O)N[C@H]1C(=O)N[C@@H](CC(N)=O)C(=O)N[C@H]2C(=O)N[C@H]3C(=O)N[C@H](C(=O)N[C@H](C(=O)O)c4cc(O)cc(O)c4-c4cc3ccc4O)[C@H](O)c3ccc(c(Cl)c3)Oc3cc2cc(c3O[C@@H]2O[C@H](CO)[C@@H](O)[C@H](O)[C@H]2O[C@H]2C[C@](C)(N)[C@H](O)[C@H](C)O2)Oc2ccc(cc2Cl)[C@H]1O [VAN, vancomycin] | > 64 µg/mL | >64 µg/mL | 4 µg/mL (≈ 2.76 µM) | > 64 µg/mL | 0.25 µg/mL (≈ 0.173 µM) | 1 µg/mL (≈ 0.69 µM) | – | – | – | – | – | MIC [7]: 1 µg/mL (≈ 0.69 µM); MIC ([6]; read-out: Measured MIC): > 64 µg/mL; Measured MIC ([6]; polC A1281T, strain Efa036, selected on 2 mg/L ACX-641): >64 µg/mL; Measured MIC ([6]; polC F1276I, strain Efa037, selected on 4 mg/L ACX-641): >64 µg/mL; Measured MIC ([6]; polC F1276L, strain Efa030, selected on 16 mg/L ACX-728): >64 µg/mL; Measured MIC ([6]; polC F1276S, strain Efa3, selected on 16 mg/L ACX-728): >64 µg/mL |

Reference: publication PMC12592400, “A unique inhibitor conformation selectively targets the DNA polymerase PolC of Gram-positive priority pathogens” (Nature Communications, 2025)
